Reference: article PMC2987581 (Tetrahedron letters, 2010)

Key:
[1] = molecular target: T1, trypsin (Bos taurus, UniProt P00760); assay: serine protease inhibition screen, trypsin; assay type: biochemical; settings: at 100 μM, the highest concentration tested
T1 sequence (P00760 24-246): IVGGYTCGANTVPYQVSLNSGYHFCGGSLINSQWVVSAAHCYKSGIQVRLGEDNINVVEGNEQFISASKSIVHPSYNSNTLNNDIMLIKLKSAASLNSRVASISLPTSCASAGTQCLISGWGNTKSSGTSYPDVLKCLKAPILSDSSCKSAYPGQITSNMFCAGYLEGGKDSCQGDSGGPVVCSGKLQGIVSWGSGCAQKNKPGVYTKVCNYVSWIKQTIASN

[2] = molecular target: aspartic protease BACE1 (Homo sapiens, UniProt P56817); assay: aspartic protease inhibition, BACE1; assay type: biochemical; settings: at concentrations up to 30 μM
Chain of aspartic protease BACE1 (P56817 46-501): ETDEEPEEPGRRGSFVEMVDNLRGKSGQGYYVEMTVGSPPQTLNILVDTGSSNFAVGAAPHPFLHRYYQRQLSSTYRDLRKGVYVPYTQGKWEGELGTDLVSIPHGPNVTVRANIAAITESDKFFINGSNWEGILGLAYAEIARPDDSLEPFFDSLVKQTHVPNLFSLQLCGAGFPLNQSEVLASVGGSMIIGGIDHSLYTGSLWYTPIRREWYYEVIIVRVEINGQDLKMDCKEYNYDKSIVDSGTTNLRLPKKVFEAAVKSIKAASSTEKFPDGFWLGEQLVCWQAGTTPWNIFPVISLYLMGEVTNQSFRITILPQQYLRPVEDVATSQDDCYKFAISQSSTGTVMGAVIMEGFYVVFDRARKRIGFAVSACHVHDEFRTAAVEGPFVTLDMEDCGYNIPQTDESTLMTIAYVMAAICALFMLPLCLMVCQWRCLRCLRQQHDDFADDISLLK

Structure (SMILES) | inhibition of trypsin [1] | inhibition of BACE1 [2]
C/C=C1\NC(=O)[C@@H](NC(=O)[C@@H](NC(=O)[C@H](C)NC(=O)CCC)C(C)C)[C@@H](C)OC(=O)[C@H](C(C)C)NC(=O)[C@H](Cc2ccc(O)cc2)N(C)C(=O)[C@H](Cc2ccccc2)N2C(=O)[C@H](CC[C@H]2O)NC1=O [Compound 1, Bouillomide A] | no inhibition | does not inhibit
C/C=C1\NC(=O)[C@@H](NC(=O)[C@@H](NC(=O)[C@H](C)NC(=O)CCC)C(C)C)[C@@H](C)OC(=O)[C@H](C(C)C)NC(=O)[C@H](Cc2ccc(O)c(Br)c2)N(C)C(=O)[C@H](Cc2ccccc2)N2C(=O)[C@H](CC[C@H]2O)NC1=O [Compound 2, Bouillomide B] | no inhibition | –
